Source: paper PMC4457802 (PLoS ONE, 2015)
Where two headings read alike, the source gives them in different places.

Legend:
[1] = tested on: Streptococcus pneumoniae; experiment: Time killing assay; type: cell-based; conditions: 1×MIC; for time to totally eliminate resistant strain: failed up to 240 min of treatment; for time to eradicate susceptible pneumococcal isolate / time to completely kill 10^6 CFU/ml of S. pneumoniae: MHB, 37°C, triplicate; for time to completely kill 10^6 CFU/ml of S. pneumoniae: sampled every 30 min to 240 min
Method: The bactericidal activities of peptides were performed as described previously. […] 10μl of bacterial suspensions were removed at various time intervals (30, 60, 90, 120, 150, 180, 210, and 240 min), serially diluted in PBS and plated onto Columbia agar with 5% sheep blood for 20-24hr at 37°C in the presence of 5% CO2 to obtain viable colonies. Erythromycin and ceftriaxone were used as positive control and the assay was performed in triplicate.

[2] = tested on: S. pneumoniae (30 clinical isolates); type: cell-based, Streptococcus pneumoniae; conditions: for MIC S. pneumoniae (30 clinical isolates), in parentheses: numbers in parentheses are micromolar concentrations; for MIC S. pneumoniae (30 clinical isolates): broth microdilution, CAMHB, 20-24hr, 37°C, 5% CO2, lowest concentration that completely inhibits growth
From the text: (§1) Thirty (30) Pneumococcal clinical isolates were obtained from University of Malaya Medical Centre (UMMC). For broad-spectrum activity of AMPs, E. coli ATCC 25922, Staphylococcus aureus ATCC 25923, P. aeruginosa ATCC 15442, Acinetobacter baumanii ATCC 15308, and one clinical isolate of each methicillin resistant S. aureus (MRSA), […], citrobacter spp., and K. pneumoniae were used in this study.
(§2) The minimum inhibitory concentration (MIC) of the peptides against 30 pneumococcal isolates was determined by broth microdilution protocol as indicated by the CLSI guidelines (Clinical and Laboratory Standards Institute). Briefly, bacterial strains were grown for 18–24 hr at 37°C under 5% CO2. Direct suspension of the colonies were made in cationically-adjusted Müeller-Hinton broth (CAMHB) and adjusted to OD 625 0.08–0.1 which corresponds to 1 ~ 2 x10^8 CFU/ml followed by serial ten-fold dilutions to give 1x10^6 CFU/ml. 50μl of bacterial suspension were added to 96-well round bottom microtiter plates containing equal volume of peptides at different concentrations (1.95, 3.90, 7.81, 15.62, 31.25, 62.5, 125, 250μg/ml) and the 96-well plates were incubated for 20-24hr at 37°C in the presence of 5% CO2.

[3] = tested on: Acinetobacter baumanii ATCC 15308; type: cell-based; conditions: numbers in parentheses are micromolar concentrations
From the text: as §1, §2

[4] = tested on: E. coli ATCC 25922; type: cell-based; conditions: numbers in parentheses are micromolar concentrations
From the text: as §1, §2

[5] = tested on: Enterococcus cloacae; type: cell-based; conditions: numbers in parentheses are micromolar concentrations
From the text: as §1, §2

[6] = tested on: K. pneumoniae; type: cell-based; conditions: numbers in parentheses are micromolar concentrations
From the text: as §1, §2

[7] = tested on: Methicillin resistant S. aureus (MRSA); type: cell-based; conditions: numbers in parentheses are micromolar concentrations
From the text: as §1, §2

[8] = tested on: P. aeruginosa ATCC 15442; type: cell-based; conditions: numbers in parentheses are micromolar concentrations
From the text: as §1, §2

[9] = tested on: citrobacter spp; type: cell-based; conditions: numbers in parentheses are micromolar concentrations
From the text: as §1, §2

[10] = tested on: S. aureus ATCC 25923; type: cell-based, Staphylococcus aureus; conditions: for MIC S. aureus ATCC 25923, in parentheses: numbers in parentheses are micromolar concentrations
From the text: as §1, §2

[11] = tested on: NL-20 normal lung cell line; type: cell-based, human
Method: (§3) CellTiter 96 AQueous Non-Radioactive Cell Proliferation assay (Promega, USA) was used to evaluate the cytotoxic effects of peptides. WRL-68 (ATCC CL-48) and NL-20 (ATCC CRL2503) cell lines were purchased from American Type Culture Collection (ATCC, USA). The cell lines were grown in Dulbecco's modified Eagle's medium (DMEM) and Ham’s F-12 medium, respectively. Cells were supplemented with 10% (v/v) fetal bovine serum (FBS) in T75 flasks and incubated at 37°C in the presence of 5% CO2. Cells were seeded into 96-well plates at a density of 1×10^4 and 3×10^4 cells per well, respectively. Peptides were added to the wells at different concentrations (1.95, 3.90, 7.81, 15.62, 31.25, 62.5, 125, and 250μg) and plates were incubated at 37°C under 5% CO2 for 24, 48, and 72 hrs. Medium with and without cells was used as positive and negative controls, respectively. After incubation, 20μl of the reagent were added to each well and incubated for 1 hr at 37°C under 5% CO2. Metabolically active cells convert the yellow MTS to purple formazan, allowing for monitoring of the reaction. The absorbance was monitored at 490 nm using GloMax Multi Detection System (Promega, USA). The percentage of viable cells was calculated according to the following formula: 100 (AT-AB/AC-AB), where AT and AC are the absorbance of treated and control cells (100% survival). AB is the absorbance of medium alone. The assay was done in triplicate.

[12] = tested on: WRL-68 normal liver cell line; type: cell-based, human
Method: as §3

Molecule | MIC S. pneumoniae (30 clinical isolates), in parentheses ([2]; unit of the source corrected) [µg/mL] | MIC Acinetobacter baumanii ATCC 15308, in parentheses [3] | MIC E. coli ATCC 25922, in parentheses ([4]; unit of the source corrected) [µg/mL] | MIC Enterococcus cloacae, in parentheses [5] | MIC K. pneumoniae, in parentheses [6] | MIC MRSA, in parentheses ([7]; unit of the source corrected) [µg/mL] | MIC P. aeruginosa ATCC 15442, in parentheses [8] | MIC citrobacter spp, in parentheses [9] | MIC S. aureus ATCC 25923, in parentheses ([10]; unit of the source corrected) [µg/mL] | MIC S. pneumoniae (30 clinical isolates) [2] [µg/mL] | MIC P. aeruginosa ATCC 15442, in parentheses ([8]; unit of the source corrected) [µg/mL] | time to completely kill 10^6 CFU/ml of S. pneumoniae [1] [min] | other results
CO/N=C(\C(=O)N[C@@H]1C(=O)N2C(C(=O)O)=C(CSc3nc(=O)c(=O)[nH]n3C)CS[C@H]12)c1csc(N)n1 [ceftriaxone, reference compound] | – | – | – | – | – | – | – | – | – | – | – | – | time to totally eliminate resistant strain [1]: > 240 min; time to eradicate susceptible pneumococcal isolate [1]: 150 min
CC[C@H]1OC(=O)[C@H](C)[C@@H](O[C@H]2C[C@@](C)(OC)[C@@H](O)[C@H](C)O2)[C@H](C)[C@@H](O[C@@H]2O[C@H](C)C[C@H](N(C)C)[C@H]2O)[C@](C)(O)C[C@@H](C)C(=O)[C@H](C)[C@@H](O)[C@]1(C)O [erythromycin, reference compound] | – | – | – | – | – | – | – | – | – | – | – | – | time to totally eliminate resistant strain [1]: > 240 min; time to eradicate susceptible pneumococcal isolate [1]: 120 min
FLGGLIKIVPAMICAVRKKC-OH [RN1, ranalexin analog] | 250 | >250 (>115.7) micromolar | 250 | >250 (>115.7) micromolar | >250 (>115.7) micromolar | 250 | >250 (>115.7) micromolar | >250 (>115.7) micromolar | 125 | – | – | – | –
FLGGLIKKWPWWPWRR-NH2 [RN7-IN9, hybrid peptide of ranalexin and indolicidin] | 7.81 to 15.6 | 31.25 (14.7) micromolar | 7.81 | >250 (>117) micromolar | >250 (>117) micromolar | 7.81 | – | >250 (>117) micromolar | 7.81 | 7.81 to 15.62 | 31.2 | ≤ 150 | concentration at which toxic, NL-20 [11]: ≥ 125 µg/mL; concentration at which toxic, WRL-68 [12]: ≥ 62.5 µg/mL
FLGGLIKPVPAMICAVRKKC-OH [RN2, ranalexin analog] | – | >250 (>116) micromolar | – | >250 (>116) micromolar | >250 (>116) micromolar | – | >250 (>116) micromolar | >250 (>116) micromolar | – | – | – | – | MIC S. pneumoniae (30 clinical isolates), in parentheses [2]: >250 (>116) micromolar; MIC E. coli ATCC 25922, in parentheses [4]: >250 (>116) micromolar; MIC MRSA, in parentheses [7]: >250 (>116) micromolar; MIC S. aureus ATCC 25923, in parentheses [10]: >250 (>116) micromolar
FLGGLIKPWWPWRR-NH2 [RN7-IN7, hybrid peptide of ranalexin and indolicidin] | 31.2 to 62.5 | 125 (69) micromolar | 31.2 | >250 (>138) micromolar | >250 (>138) micromolar | 31.2 | – | >250 (>138) micromolar | 31.2 | 31.25 to 62.5 | 62.5 | 120 | –
FLGGLIKRPPAMICAVRKKC-OH [RN4, ranalexin analog] | – | >250 (>113) micromolar | – | >250 (>113) micromolar | >250 (>113) micromolar | – | >250 (>113) micromolar | >250 (>113) micromolar | – | – | – | – | MIC S. pneumoniae (30 clinical isolates), in parentheses [2]: >250 (>113) micromolar; MIC E. coli ATCC 25922, in parentheses [4]: >250 (>113) micromolar; MIC MRSA, in parentheses [7]: >250 (>113) micromolar; MIC S. aureus ATCC 25923, in parentheses [10]: >250 (>113) micromolar
FLGGLIKRVPAMICAVRKKC-OH [RN3, ranalexin analog] | – | >250 (>113) micromolar | – | >250 (>113) micromolar | >250 (>113) micromolar | – | >250 (>113) micromolar | >250 (>113) micromolar | – | – | – | – | MIC S. pneumoniae (30 clinical isolates), in parentheses [2]: >250 (>113) micromolar; MIC E. coli ATCC 25922, in parentheses [4]: >250 (>113) micromolar; MIC MRSA, in parentheses [7]: >250 (>113) micromolar; MIC S. aureus ATCC 25923, in parentheses [10]: >250 (>113) micromolar
LLPWKWPWWKWRR-NH2 [IN1, indolicidin analog] | 31.2 to 62.5 | >250 (129) micromolar | 31.2 | >250 (>129) micromolar | >250 (>129) micromolar | 31.2 | – | >250 (>129) micromolar | 31.2 | 31.25 to 62.5 | 31.2 | 210 | –
RLPWRWPRRPWRR-NH2 [IN4, indolicidin analog] | 250 | >250 (>130.4) micromolar | 250 | >250 (>130.4) micromolar | >250 (>130.4) micromolar | 250 | – | >250 (>130.4) micromolar | – | > 250 | 125 | – | MIC S. aureus ATCC 25923 ([10]; broth microdilution): 125 µg/mL
RRPWRWPRWPWRR-NH2 [IN3, indolicidin analog] | 62.5 | >250 (>125) micromolar | 31.2 | >250 (>125) micromolar | >250 (>125) micromolar | 62.5 | – | >250 (>125) micromolar | 31.2 | – | 31.2 | 150 | –
RRPWRWPWWPWRR-NH2 [IN2, indolicidin analog] | 31.2 to 62.5 | >250 (>123) micromolar | 31.2 | >250 (>123) micromolar | >250 (>123) micromolar | 31.2 | – | >250 (>123) micromolar | 31.2 | 31.25 to 62.5 | 31.2 | 210 | –
